{"source": "patent US11851681B2", "about": "“Cell preparation method” (KYOTO PREFECTURAL PUBLIC UNIVERSITY CORPORATION, priority 2015, dated 2023)", "key": {"[1]": {"tested_on": "human dermal fibroblasts; HDFs", "assay": "Oil Red O staining, fibroblast to brown adipocyte, Example 12", "format": "cell-based", "conditions": "compound 2 μM in addition to T3 1 nM and Rosiglitazone 1 μM, adipocyte induction medium; day 14; FIG. 12", "description": "(§1) The concentrations of the additives are as follows: • T3: 1 nM • Rosiglitazone: 1 μM • D4476: 2 μM • Pifithrin alpha [p53 inhibitor]: 5 μM • SB431542: 2 μM • ALK5 Inhibitor II: 2 μM.\nThen, the cells were washed with sterile distilled water and photographed with a phase contrast microscope at ×100 magnification."}, "[2]": {"tested_on": "human dermal fibroblasts; HDFs", "assay": "Real-time RT-PCR of AdipoQ, Example 14", "format": "cell-based", "conditions": "D4476, SB431542, ALK5 Inhibitor II 2 μM, PD0325901 1 μM, in addition to T3 and Rosiglitazone; day 14; FIG. 14", "description": "The concentrations of the additives are as follows: • T3: 1 nM • Rosiglitazone: 1 μM • D4476: 2 μM. • Pifithrin alpha [p53 inhibitor]: 5 μM • PD0325901: 1 μM • SB431542: 2 μM • ALK5 Inhibitor II: 2 μM."}, "[3]": {"tested_on": "Human normal skin-derived fibroblasts (HDFs)", "assay": "Immunostaining of UCP1, four inhibitors, Example 40", "format": "cell-based", "conditions": "LY2157299 8 μM, SB431542 4 μM, D4476 4 μM, Day 1 to Day 8, day 14, FIG. 44", "method": "Human normal skin-derived fibroblasts (HDFs) were suspended in a general medium (DMEM added with 10% FBS). […] The adipocyte induction medium is DMEM added with 1 nM T3, 1 μM Rosiglitazone, 0.5 mM 3-isobutyl-1-methylxanthine (IBMX), 0.5 μM dexamethasone, 1 μg/mL Insulin and 10% FBS. Once every 2 days, the culture medium was exchanged with a fresh one, and culturing was performed from Day 1 to Day 8. Thereafter, from Day 9 to Day 14, the cells were cultured in an adipocyte induction medium free of ALK5 inhibitor II, LY2157299, SB431542, D4476. On day 14, the culture medium was removed by suction from each well, and washed with PBS(−). After fixing with 4% para-formaldehyde, the well was washed with PBS (−), Permanent wave Buffer (0.2% Triton-X addition PBS) was added and the well was incubated for 15 min. After washing 3 times with PBS(−), Blocking One was added, and the mixture was incubated at room temperature for 60 min. Anti-UCP-1 antibody (RD MAB6158) was added and the mixture was reacted for 2 hrs at room temperature, and washed 3 times with Wash buffer. CF488-conjugated anti-mouse Ig antibody (Biotum 20014) was added and the mixture was reacted for 2 hrs at room temperature, and washed 3 times with PBS(−). After nuclear staining with SlowFade Gold antifade reagent with DAPI manufactured by Lifetechnology, the cells were photographed with a fluorescence microscope at ×100 magnification."}, "[4]": {"tested_on": "Human Epidermal Keratinocyte; NHEK (AD)", "assay": "Real-time RT-PCR of UCP1 and CIDEA, keratinocyte to brown adipocyte, Example 43", "format": "cell-based", "conditions": "K-adipocyte induction medium; ALK5 inhibitor II 4 μM or LY2157299 8 μM, Day 1 to Day 8; day 14; FIG. 47", "method": "Normal human epidermal keratinocyte (Human Epidermal Keratinocyte; NHEK (AD)) were suspended in a serum-free liquid medium for normal human epidermal keratinocyte proliferation (HuMedia-KG2; manufactured by Kurabo).\nThe K-adipocyte induction medium is HuMedia-KG2 added with 1 nM T3, 1 μM Rosiglitazone, 0.5 mM 3-isobutyl-1-methylxanthine (IBMX), 0.5 μM dexamethasone, and 1 μg/mL Insulin.\nOnce every 2 days, the culture medium was exchanged with a fresh one, and culturing was performed from Day 1 to Day 8. Thereafter, from Day 9 to Day 14, the cells were cultured in a medium free of ALK5 inhibitor II or LY2157299. On day 14, the culture medium was removed by suction from each well, washed with PBS(−) and total RNA was extracted from the cells by using RNA easy Mini Kit manufactured by Qiagen. cDNA was synthesized from the RNA by using Rever Tra Ace qPCR RT Master Mix. This cDNA was admixed with Real-time PCR Master Mix, primers specific to UCP-1 gene, CIDEA gene or β actin gene and Taqman probe. qRT-PCR was performed using AB7300 Real-time PCR system. The mRNA level of UCP1 gene and CIDEA gene was quantified as a ratio to β-actin gene mRNA level, and calculated with the value of fibroblast cultured in the general medium as 1."}, "[5]": {"tested_on": "Human normal skin-derived fibroblasts (HDFs)", "conditions": "4 μM in adipocyte induction medium Day 1 to Day 8; day 14; FIG. 46", "description": "Human normal skin-derived fibroblasts (HDFs) were suspended in a general medium (DMEM added with 10% FBS). […] The adipocyte induction medium is DMEM added with 1 nM T3, 1 μM Rosiglitazone, 0.5 mM 3-isobutyl-1-methylxanthine (IBMX), 0.5 μM dexamethasone, 1 μg/mL Insulin and 10% FBS. […] On day 14, the culture medium was removed by suction from each well, and washed with PBS(−). […] After washing 3 times with PBS(−), Blocking One was added, and the mixture was incubated at room temperature for 60 min. Anti-UCP-1 antibody (RD MAB6158) was added and the mixture was reacted for 2 hrs at room temperature, and washed 3 times with Wash buffer. CF488-conjugated anti-mouse Ig antibody (Biotum 20014) was added and the mixture was reacted for 2 hrs at room temperature, and washed 3 times with PBS(−). After nuclear staining with SlowFade Gold antifade reagent with DAPI manufactured by Lifetechnology, the cells were photographed with a fluorescence microscope at ×100 magnification."}, "[6]": {"tested_on": "Human normal skin-derived fibroblasts (HDFs)", "conditions": "FIG. 42", "description": "Human normal skin-derived fibroblasts (HDFs) were suspended in a general medium (DMEM added with 10% FBS). […] An adipocyte induction medium was added to group 2 at 1 mL/well. An adipocyte induction medium added with ALK5 inhibitor II at a concentration of 4 μM was added to groups 3-8 at 1 mL/well.\nThe adipocyte induction medium is DMEM added with 1 nM T3, 1 μM Rosiglitazone, 0.5 mM 3-isobutyl-1-methylxanthine (IBMX), 0.5 μM dexamethasone, 1 μg/mL Insulin and 10% FBS. Once every 2 days, the culture medium was exchanged with a fresh one. In groups 3-7, as described in the Figure, the cells were cultured in an adipocyte induction medium added with ALK5 inhibitor II only in the period of days 0-2, 0-4, 0-6, 0-8, 0-10, and thereafter cultured in an adipocyte induction medium free of ALK5 inhibitor II. On day 14, the culture medium was removed by suction from each well, and washed with PBS(−). After fixing with 4% para-formaldehyde, the well was washed with PBS (−), Permanent wave Buffer (0.2% Triton-X-added PBS) was added and the well was incubated for 15 min. After washing 3 times with PBS(−), Blocking One was added, and the mixture was incubated at room temperature for 60 min. Anti-UCP-1 antibody (RD MAB6158) was added and the mixture was reacted for 2 hrs at room temperature, and washed 3 times with Wash buffer. CF488-conjugated anti-mouse Ig antibody (Biotum 20014) was added and the mixture was reacted for 2 hrs at room temperature, and washed 3 times with PBS(−). After nuclear staining with SlowFade Gold antifade reagent with DAPI manufactured by Lifetechnology, the cells were photographed with a fluorescence microscope at ×100 magnification."}, "[7]": {"tested_on": "human dermal fibroblasts; HDFs", "assay": "Alizarin Red S staining (staining figure), fibroblast to osteoblast, Example 1", "format": "cell-based", "conditions": "each compound 2 μM in calcification induction medium; day 24; FIG. 1", "description": "It was washed 3 times with sterile distilled water. […] The well after staining was washed with sterile distilled water and photographed.\nThe concentrations of the compounds are as follows: • D4476: 2 μM • ALK5 inhibitor II: 2 μM • SB431542: 2 μM."}, "[8]": {"tested_on": "Human normal skin-derived fibroblasts (HDFs)", "assay": "Real-time RT-PCR of UCP1, CIDEA, KCNK3, Example 41", "format": "cell-based", "conditions": "ALK5 inhibitor II or LY2157299 (8 μM), Day 1 to Day 8; day 14; FIG. 45", "method": "Human normal skin-derived fibroblasts (HDFs) were suspended in a general medium (DMEM added with 10% FBS). […] The adipocyte induction medium is DMEM added with 1 nM T3, 1 μM Rosiglitazone, 0.5 mM 3-isobutyl-1-methylxanthine (IBMX), 0.5 μM dexamethasone, 1 μg/mL Insulin and 10% FBS. Once every 2 days, the culture medium was exchanged with a fresh one, and culturing was performed from Day 1 to Day 8. Thereafter, from Day 9 to Day 14, the cells were cultured in an adipocyte induction medium free of ALK5 inhibitor II or LY2157299. On day 14, the culture medium was removed by suction from each well, washed with PBS(−) and total RNA was extracted from the cells by using RNA easy Mini Kit manufactured by Qiagen. cDNA was synthesized from the RNA by using Rever Tra Ace qPCR RT Master Mix. This cDNA was admixed with Real-time PCR Master Mix, primers specific to UCP-1 gene, CIDEA gene, KCNK3 gene or β actin gene and Taqman probe. qRT-PCR was performed using AB7300 Real-time PCR system. The mRNA level of UCP1 gene was quantified as a ratio to β-actin gene mRNA, and calculated with the value of fibroblast cultured in the general medium as 1."}, "[9]": {"tested_on": "Human Epidermal Keratinocyte; NHEK (AD)", "conditions": "CnT-PR medium, 1 μM or 10 μM; day 21; FIG. 56"}, "[10]": {"tested_on": "human dermal fibroblasts; HDFs", "assay": "Bodipy staining in WA medium, four inhibitors, Example 48", "format": "cell-based", "conditions": "day 12, FIG. 52"}, "[11]": {"tested_on": "human dermal fibroblasts; HDFs", "assay": "Real-time RT-PCR of CIDEA, Example 13", "format": "cell-based", "conditions": "compound 2 μM in addition to T3 1 nM and Rosiglitazone 1 μM, adipocyte induction medium; day 14; FIG. 13", "description": "as §1"}, "[12]": {"tested_on": "human dermal fibroblasts; HDFs", "conditions": "4 μM in calcification induction medium; day 18; FIG. 20", "method": "The calcification induction medium is a 10% FBS DMEM added with 50 μg/ml ascorbic acid, 10 mM β-glycerophosphate and 100 nM Dexamethasone. The culture medium was exchanged with a fresh one every 3-4 days, and culturing was performed until day 18. On day 18, the culture medium was removed from each well by suction, washed with PBS(−), and fixed with 10% formalin. It was washed 3 times with sterile distilled water. The well after staining with Alizarin Red S was washed with sterile distilled water, and photographed with an inverted microscope at ×40 magnification."}, "[13]": {"tested_on": "human peripheral blood mononuclear cells; PBMCs", "conditions": "P-adipocyte induction medium, 4 μM; day 14; FIG. 57", "method": "Human normal peripheral blood mononuclear cells (human peripheral blood mononuclear cells; PBMCs) were suspended in Control medium (RPMI1640 medium added with 10% FBS). […] P-adipocyte induction medium (adipocyte induction medium for peripheral blood mononuclear cell) was added to group 2 at 1 mL/well. P-adipocyte induction medium added with ALK5 inhibitor II at a concentration of 4 μM was added to group 3 at 1 mL/well. The P-adipocyte induction medium is RPMI1640 medium added with 10% FBS, 30 U/ml recombinant hIL-2, 1 nM T3, 1 μM Rosiglitazone, 0.5 mM 3-isobutyl-1-methylxanthine (IBMX), 0.5 μM dexamethasone and 1 μg/mL Insulin. Once every 2 days, 50% of the culture medium was exchanged with a fresh one.\nOn day 14, the culture medium was removed by suction from each well, washed with PBS(−) and total RNA was extracted from the cells by using RNA easy Mini Kit manufactured by Qiagen. cDNA was synthesized from the RNA by using Rever Tra Ace qPCR RT Master Mix. This cDNA was admixed with Real-time PCR Master Mix, primers specific to FABP4 gene or β actin gene and Taqman probe. qRT-PCR was performed using AB7300 Real-time PCR system. The mRNA level of FABP4 gene was quantified as a ratio to 3-actin gene mRNA level, and calculated with the value of human normal peripheral blood mononuclear cell cultured in the general medium as 1."}, "[14]": {"tested_on": "human dermal fibroblasts; HDFs", "assay": "Bodipy staining in WA medium (BODIPY positive cells), Example 46", "conditions": "day 12, FIG. 50"}}, "note": "Entries after “also recorded” stand apart in the source; their conditions may differ. Like-named read-outs stand apart in the source and are kept apart here.", "data": [{"smiles": "Cc1cccc(-c2n[nH]cc2-c2ccc3ncccc3n2)n1", "note": "[ALK5 inhibitor II, 2-(3-(6-Methylpyridin-2-yl)-1H-pyrazol-4-yl)-1,5-naphthyridine]", "values": [{"measurement": "conversion of fibroblast to brown adipocyte, Oil Red O staining", "setting": "[1]", "value": "converted fibroblast to brown adipocyte"}, {"measurement": "conversion of fibroblast to brown adipocytes, AdipoQ mRNA", "setting": "[2]", "value": "converted fibroblast to brown adipocytes expressing mRNA of AdipoQ gene"}, {"measurement": "conversion of fibroblast to brown adipocyte, UCP1 protein", "setting": "[3]; ALK5 inhibitor II 4 μM", "value": "converted fibroblast to brown adipocyte expressing UCP1 protein; also recorded: most strongly induced"}, {"measurement": "staining with anti-UCP1 antibody", "setting": "[3]; groups 3-6: ALK5 inhibitor II 4 μM", "value": "many cells were stained with anti-UCP1 antibody; also recorded: the density of the cells stained with anti-UCP1 antibody was the highest"}, {"measurement": "conversion of epidermal keratinocyte to brown adipocyte, UCP1 and CIDEA mRNA", "setting": "[4]", "value": "converted normal human epidermal keratinocyte to brown adipocyte expressing UCP1 gene and CIDEA gene"}, {"measurement": "fibroblasts converted to brown adipocyte highly expressing UCP1 protein (UCP1 positive cells in DAPI positive cells)", "setting": "[5]", "value": "more than 90%"}, {"measurement": "staining with anti-UCP1 antibody", "setting": "[5]", "value": "many cells were strongly stained with anti-UCP1 antibody"}, {"measurement": "conversion of fibroblast to brown adipocyte, UCP1 protein, exposure 0-8 days", "setting": "[6]; 4 μM for 0-8 days, thereafter medium free of ALK5 inhibitor II", "value": "can be more strongly induced"}, {"measurement": "staining with anti-UCP1 antibody, groups 3-8", "setting": "[6]; 4 μM in adipocyte induction medium, days 0-2 to 0-10 or throughout, day 14", "value": "many cells were stained with anti-UCP1 antibody"}, {"measurement": "conversion of fibroblast to brown adipocyte, UCP1 protein", "setting": "[6]; 4 μM in adipocyte induction medium, day 14", "value": "converted fibroblast to brown adipocyte is highly expressing UCP1 protein"}, {"measurement": "staining with anti-UCP1 antibody, group 6", "setting": "[6]; 4 μM only in days 0-8, day 14", "value": "the density of the cells stained with anti-UCP1 antibody was the highest"}, {"measurement": "conversion of human fibroblast to osteoblast, Alizarin Red S staining (staining figure)", "setting": "[7]", "value": "converted to osteoblast having calcified is bone matrix production ability; also recorded: most efficiently converts fibroblast to osteoblast"}, {"measurement": "conversion of fibroblast to brown adipocyte, UCP1, CIDEA and KCNK3 mRNA", "setting": "[8]", "value": "converted fibroblast to brown adipocyte expressing UCP1 gene, CIDEA gene and KCNK3 gene; also recorded: more strongly induced"}, {"measurement": "conversion of epidermal keratinocyte to urothelial cell, Uroplakin 1b and Uroplakin 3b mRNA", "setting": "[9]", "value": "converted human epidermal keratinocyte to urothelial cell expressing Uroplakin 1b gene and Uroplakin 3b gene"}, {"measurement": "lipid droplets stained with Bodipy, inhibitor alone", "setting": "[10]; WA medium added with 16 μM compound alone", "value": "only a few cells contained lipid droplets stained with Bodipy"}, {"measurement": "lipid droplets stained with Bodipy / conversion to white adipocyte, inhibitor and Rosiglitazone", "setting": "[10]; WA medium added with 16 μM compound and 1 μM Rosiglitazone", "value": "many cells were stained; also recorded: most strongly induced conversion of fibroblast to white adipocyte"}, {"measurement": "conversion of fibroblast to brown adipocytes, CIDEA mRNA", "setting": "[11]", "value": "converted fibroblast to brown adipocytes expressing mRNA of CIDEA gene"}, {"measurement": "conversion of fibroblast to osteoblast, Alizarin Red S staining", "setting": "[12]", "value": "converted human skin-derived fibroblast to osteoblast that produces a large amount of calcified bone matrix"}, {"measurement": "conversion of peripheral blood mononuclear cell to white adipocyte, FABP4 mRNA", "setting": "[13]", "value": "converts human normal peripheral blood mononuclear cell to white adipocyte expressing FABP4 gene"}, {"measurement": "BODIPY positive cells / conversion to white adipocyte, co-addition with Rosiglitazone", "setting": "[14]; WA medium co-added with 8 μM or 16 μM ALK5 inhibitor II and 1 μM Rosiglitazone", "value": "more cells were stained; also recorded: more strongly induced conversion of fibroblast to white adipocyte"}, {"measurement": "BODIPY positive cells / conversion to white adipocyte, single addition", "setting": "[14]; WA medium, 1 μM Rosiglitazone or 16 μM ALK5 inhibitor II", "value": "contained stained cells at low frequency; also recorded: converted human fibroblast to white adipocyte"}]}]}
